The target in data set [1] is T1, DNA topoisomerase I (Leishmania donovani (strain BPK282A1)) (UniProt E9BRC0).
T1 sequence (whole entry): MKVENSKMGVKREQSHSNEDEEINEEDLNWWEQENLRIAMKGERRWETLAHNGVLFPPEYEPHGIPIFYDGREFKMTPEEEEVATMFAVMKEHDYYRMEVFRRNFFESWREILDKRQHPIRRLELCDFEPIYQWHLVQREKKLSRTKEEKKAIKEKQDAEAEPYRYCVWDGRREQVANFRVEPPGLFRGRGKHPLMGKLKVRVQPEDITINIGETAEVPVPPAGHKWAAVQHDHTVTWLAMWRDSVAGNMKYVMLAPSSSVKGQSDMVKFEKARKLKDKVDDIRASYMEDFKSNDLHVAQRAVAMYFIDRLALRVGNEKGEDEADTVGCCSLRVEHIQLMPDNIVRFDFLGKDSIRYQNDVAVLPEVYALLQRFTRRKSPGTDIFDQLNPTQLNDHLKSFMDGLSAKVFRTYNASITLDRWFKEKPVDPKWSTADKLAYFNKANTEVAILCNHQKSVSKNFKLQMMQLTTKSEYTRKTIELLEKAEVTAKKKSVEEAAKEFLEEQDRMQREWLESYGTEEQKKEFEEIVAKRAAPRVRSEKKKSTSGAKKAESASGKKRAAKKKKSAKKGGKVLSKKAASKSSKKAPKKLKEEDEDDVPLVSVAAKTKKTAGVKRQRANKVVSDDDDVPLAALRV
Put plainly: Inhibition of Leishmania donovani topoisomerase I assessed as DNA intercalation using pBluscript (SK+) DNA as substrate at 50 to 200 uM incubated for 15 mins ethidium bromide staining based UV analysis. To be noted: dose 50-200 µM.

Data set [2] addresses T2, DNA topoisomerase I (Leishmania donovani (strain BPK282A1), UniProt E9BRC0).
T2 sequence (E9BRC0 whole entry): T1 sequence (whole entry)
Put plainly: Inhibition of Leishmania donovani Top1 assessed as relaxation of supercoiled pBluescript SK(+) DNA measured by agarose gel electrophoresis analysis.

Data set [3] deals with Leishmania donovani. Put plainly: Antileishmanial activity in Leishmania donovani Ag83 promastigotes assessed as reversible of Top1cc-induced DNA breakdown by disappearance of measuring TUNEL positive cells treated for 6 to 12 hrs followed by compound removal measured after 6 to 12 hrs by confocal microscopic analysis. The data set is classed as functional, organism-based. The conditions noted are these: time 6-12 hrs.

Data set [4] has as its target T1, DNA topoisomerase I (Leishmania donovani (strain BPK282A1)). Put plainly: Binding affinity to antimony resistant Leishmania donovani BHU575 promastigotes recombinant topoisomerase I assessed as stabilization of cleavage complex at 50 to 100 uM measured after 30 mins. The conditions noted are these: dose 50-100 µM.
The subject of data set [5] is Leishmania donovani. Briefly: Stabilization of Leishmania donovani promastigotes Top1-DNA complex assessed as formation of SDS-KCl precipitable complex incubated for 110 mins by anti-BrdU staining based spectrophotometric analysis. (Incorporation of labelled thymidine or its analogues reports DNA synthesis.)
For data set [6], the system named is Leishmania donovani. Put plainly: Antileishmanial activity against antimony resistant Leishmania donovani BHU575 amastigotes infected in BALB/c mouse macrophage assessed as cell viability measured after 48 hrs infection by propidium iodide staining analysis relative to control. The data set is classed as functional, organism-based. The conditions noted are these: BHU575, 48 h.

Data set [7] relates to Leishmania donovani. Briefly: Antileishmanial activity against Leishmania donovani Ag83 amastigotes infected in BALB/c mouse macrophage assessed as cell viability measured after 48 hrs infection by propidium iodide staining analysis relative to control. The data set is classed as functional, organism-based. The conditions noted are these: Ag83, 48 h.
The nature of data set [8]: Cytotoxicity against BALB/c mouse macrophage assessed as cell viability measured after 48 hrs infection by propidium iodide staining analysis relative to control. The data set is classed as toxicity, cell-based. The conditions noted are these: mouse macrophages.
Data set [9] relates to Leishmania donovani. Put plainly: Antileishmanial activity in Leishmania donovani Ag83 promastigotes assessed as Top1cc-induced DNA breakdown by measuring TUNEL positive cells by confocal microscopic analysis. To be noted: time 6-12 hrs, TDE = time-dependent effect. It is filed as functional, organism-based.
The test system of the next data set is MCF7. Briefly: Induction of cell cycle arrest in human MCF7 cells assessed as accumulation at G1 sub population measured at 5 uM upto 24 hrs by PI staining based flow cytometry. It is filed as functional. Background: A flow cytometer gives signals particle by particle.
The test system of data set [10] is Leishmania donovani. Briefly: Antileishmanial activity against antimony resistant Leishmania donovani BHU575 promastigotes assessed as cell viability by MTT assay. The data set is classed as functional, organism-based. On the technique in general: Tetrazolium dyes change colour on reduction, which living cells bring about.
Data set [11] addresses T1, DNA topoisomerase I (Leishmania donovani (strain BPK282A1)). Put plainly: Binding affinity to topoisomerase I in Leishmania donovani Ag83 whole cell lysate assessed as stabilization of cleavage complex at 50 to 100 uM measured after 30 mins. The data set is classed as subcellular. To be noted: dose 50-100 µM.
The subject of data set [12] is Leishmania donovani. Put plainly: Antileishmanial activity against Leishmania donovani Ag83 promastigotes assessed as cell viability by MTT assay. The data set is classed as functional, organism-based.
Data set [13] has as its target T1, DNA topoisomerase I (Leishmania donovani (strain BPK282A1)). Briefly: Binding affinity to Leishmania donovani recombinant topoisomerase I assessed as stabilization of cleavage complex at 25 to 50 uM measured after 30 mins. The conditions noted are these: dose 25-50 µM.
Data set [14] addresses T2, DNA topoisomerase I. Briefly: Inhibition of recombinant Top1 in Leishmania donovani Ag83 whole cell extract assessed as relaxation of supercoiled pBluescript SK(+) DNA measured by agarose gel electrophoresis analysis.
The target in data set [15] is T1, DNA topoisomerase I (Leishmania donovani (strain BPK282A1)). Put plainly: Binding affinity to Leishmania donovani topoisomerase I assessed as DNA intercalation by measuring dislodging of bound fluorophore at 50 uM by EtBr displacement assay.

This is an account of results in ChEMBL document CHEMBL5316350, “Novel Pyrido[2',1':2,3]imidazo[4,5-c]quinoline Derivative Selectively Poisons Leishmania donovani Bisubunit Topoisomerase 1 to Inhibit the Antimony-Resistant Leishmania Infection in Vivo” (J Med Chem, 2023).

Usually pIC50 stands for the IC50 on a negative log10 scale, so that one unit is a factor of ten. Usually pEC50 stands for the negative decadic logarithm of the EC50, by convention in mol/L. What is called EC50 is the concentration at which the effect is half-maximal.

pEC50, pIC50: −log10 of the molar value. Active and inactive are the calls of the source. The calls are words filed in the database; no cut-off is given here.

`COc1cc([C@@H]2c3cc4c(cc3[C@@H](O[C@@H]3O[C@@H]5CO[C@@H](C)O[C@H]5[C@H](O)[C@H]3O)[C@H]3COC(=O)[C@H]23)OCO4)cc(OC)c1O`: the inhibition result in data set [1] was “inactive”.
In the case of `Cc1ccc(-c2nc3ccccc3c3nc4ccccn4c23)cc1`, the pIC50 at DNA topoisomerase I [2] is below 5.00.
The same measure, in the same setting: the result for `Cc1ccc2nc3c4ccccc4ncc3n2c1` reads below 5.00; that for `O=[N+]([O-])c1cccc(-c2nc3ccccc3c3nc4ccccn4c23)c1`, below 5.00; that for `Cc1ccn2c(c1)nc1c3ccccc3nc(-c3ccccc3)c12`, below 5.00.
Still for that read-out and setting: the result for `O=[N+]([O-])c1ccc(-c2nc3ccccc3c3nc4ccccn4c23)cc1` reads below 5.00.
As to `CC[C@@]1(O)C(=O)OCc2c1cc1n(c2=O)Cc2cc3ccccc3nc2-1` [CAMPTOTHECIN], in the data set with Leishmania donovani [3], the outcome was inactive. The result (in [4]; with Leishmania donovani [5]; with MCF7; in [11]; in data set [13]) was Active. For the same compound, the pEC50 in the data set on Leishmania donovani [6] was 4.89; in the data set with Leishmania donovani [7], 5.11; with Leishmania donovani [10] it was 5.18; in the data set with Leishmania donovani [12], 5.42. The concentration giving a half-maximal response (EC50) at 48 h in data set [8] came out at 18.3 µM. Further, in the data set on Leishmania donovani [9], the Activity entry is “Tde”.
`Cc1cccn2c1nc1c3ccccc3nc(-c3ccccc3)c12`: the pIC50 at DNA topoisomerase I [14] is 4.89; on DNA topoisomerase I [2], 5.17.
As to `Cc1ccn2c(c1)nc1c3ccccc3ncc12`, the pIC50 on DNA topoisomerase I [2] is below 5.00.
Same read-out and setting: the result for `Cc1cccn2c1nc1c3ccccc3nc(-c3ccccn3)c12` reads below 5.00; that for `Clc1ccc2nc3c4ccccc4ncc3n2c1`, below 5.00.
Consider `O=[N+]([O-])c1ccccc1-c1nc2ccccc2c2nc3ccccn3c12`, for which, on DNA topoisomerase I [2], the pIC50 was below 5.00.
On the same count and under the same terms, for `c1ccc(-c2nc3ccccc3c3nc4ccccn4c23)cc1` the value was below 5.00; for `COc1ccc(-c2nc3ccccc3c3nc4cc(C)ccn4c23)cc1`, below 5.00; for `Cc1ccc(-c2nc3ccccc3c3nc4cc(C)ccn4c23)cc1`, below 5.00.
Still for that read-out and setting: for `Brc1ccc2nc3c4ccccc4ncc3n2c1` the value was below 5.00.
As for `COc1cc(NS(C)(=O)=O)ccc1Nc1c2ccccc2nc2ccccc12`, in data set [15], the result was Active. The inhibition result in data set [1] was “Active”.
As for `Clc1ccc(-c2nc3ccccc3c3nc4ccccn4c23)cc1`, on DNA topoisomerase I [2], the negative-log IC50 (pIC50) was 5.07.
For the compound `Cc1cccn2c1nc1c3ccccc3nc(-c3cccs3)c12`, the pIC50 on DNA topoisomerase I [14] was 4.83; on DNA topoisomerase I [2], 5.14.
`Cc1cccn2c1nc1c3ccccc3nc(-c3ccc(Cl)cc3)c12`: the pIC50 on DNA topoisomerase I [14] is 4.90; on DNA topoisomerase I [2], 5.26.
For `c1ccc2c(c1)ncc1c2nc2ccccn21`, at DNA topoisomerase I [2], the pIC50 is below 5.00.
With `COc1ccc(-c2nc3ccccc3c3nc4ccccn4c23)cc1OC`, the pIC50 at DNA topoisomerase I [14] is 4.92; on DNA topoisomerase I [2], 5.28.
The like results for `Cc1ccc(-c2nc3ccccc3c3nc4c(C)cccn4c23)cc1` were, in that order, 4.82 and 5.14.
